Measured values as given in patent US20120135923A1, “Use of Melanocortins to Treat Dyslipidemia” (IPSEN PHARMA, S.A.S., priority 2009, published 2012).
Where two headings read alike, the source gives them in different places. Bridge positions count the residues as written; N and C are the ends. Square brackets hold non-standard residues; d marks the D form. Peptide text beside a SMILES is read from it. d2Nal = N[C@H](Cc1ccc2ccccc2c1)C(=O)O; Bta = N[C@@H](Cc1csc2ccccc12)C(=O)O; βAla = NCCC(=O)O

Experiments:
[1] = molecular target: T1, hMC5-R (Homo sapiens, UniProt P33032); assay: cyclic AMP bioassay (ECL) in CHO-K1 cells; type: cell-based
T1 construct: expressed in transfected cells; host or cells: CHO-K1

[2] = molecular target: T2, hMC4-R (Homo sapiens, UniProt P32245); assay: cyclic AMP bioassay (ECL) in CHO-K1 cells; type: cell-based
T2 construct: expressed in transfected cells; host or cells: CHO-K1
Experimental: (§1) Intracellular cyclic AMP (cAMP) levels were determined by an electrochemiluminescence (ECL) assay (Meso Scale Discovery®, Gaithersburg, Md.; referred to hereinafter as MSD). […] Transgenic CHO-K1 cells stably expressing hMC receptor subtypes 1, 3, 4 or 5 were dispensed at a density of approximately 7,000 cells/well in 384-well Multi-Array®plates (MSD) containing integrated carbon electrodes and coated with anti-cAMP antibody. Increasing concentrations of the test compounds were added and the cells were incubated for approximately 40 minutes at approximately 37° C. […] At the end of the second incubation period read buffer (Tris-buffered solution containing an ECL co-reactant and Triton X-100 at ph 7.8) was added and the cAMP levels in the cell lysates were immediately determined by ECL detection with a Sector Imager 6000 Reader® (MSD). Data were analyzed using a computer-assisted non-linear regression analysis (XL fit; IDBS) and reported as either an EC50 value or a Kb value.
(§2) The Kb value reflects the potency of an antagonist and is determined by Schild analysis. In brief, concentration-response curves of an agonist are carried out in the presence of increasing concentrations of an antagonist. […] It is calculated by extrapolating the line on a Schild plot to zero on the y-axis.

[3] = molecular target: T1, hMC5-R; assay: Radioligand binding assay, [125I]-NDP-α-MSH competition, CHO-K1 membranes
Experimental: Cellular membranes used for the in vitro receptor binding assays were obtained from transgenic CHO-K1 cells stably expressing hMC-R receptor subtypes 1, 3, 4 or 5. […] The pellets were resuspended in the same buffer and centrifuged at 50,000 g for 10 minutes at approximately 4° C. The washed pellets containing the cellular membranes were stored at approximately −80° C.
Cell membranes (1-10 μg protein/well) prepared as described above were incubated in 50 mM Tris-HCl at pH 7.4 containing 0.2% bovine serum albumin (BSA), 5 mM MgCl2, 1 mM CaCl2 and 0.1 mg/mL bacitracin, with increasing concentrations of the test compound and 0.1-0.3 nM [^25I]-NDP-α-MSH for approximately 90-120 minutes at approximately 37° C. […] Filters were washed three times with 50 mM Tris-HCl at pH 7.4 at a temperature of approximately 0-4° C. and then assayed for radioactivity using a Packard Topcount® scintillation counter. Binding data were analyzed by computer-assisted non-linear regression analysis (XL fit; IDBS).

[4] = molecular target: T3, hMC3-R (Homo sapiens, UniProt P41968); assay: cyclic AMP bioassay (ECL) in CHO-K1 cells; type: cell-based
T3 construct: expressed in transfected cells; host or cells: CHO-K1

[5] = molecular target: T4, hMC1-R (Homo sapiens, UniProt Q01726); assay: cyclic AMP bioassay (ECL) in CHO-K1 cells; type: cell-based
T4 construct: expressed in transfected cells; host or cells: CHO-K1
Experimental: as §1, §2

[6] = cAMP, CHO-K1 cells expressing hMC5-R, read-out: EC50 hMC5-R
[7] = antagonist potency by Schild analysis, cAMP, CHO-K1 cells expressing hMC4-R, read-out: Kb hMC4-R
[8] = antagonist potency by Schild analysis, cAMP, CHO-K1 cells expressing hMC3-R, read-out: Kb hMC3-R
[9] = cAMP, CHO-K1 cells expressing hMC1-R, read-out: EC50 hMC1-R

T1 sequence (P33032 whole entry): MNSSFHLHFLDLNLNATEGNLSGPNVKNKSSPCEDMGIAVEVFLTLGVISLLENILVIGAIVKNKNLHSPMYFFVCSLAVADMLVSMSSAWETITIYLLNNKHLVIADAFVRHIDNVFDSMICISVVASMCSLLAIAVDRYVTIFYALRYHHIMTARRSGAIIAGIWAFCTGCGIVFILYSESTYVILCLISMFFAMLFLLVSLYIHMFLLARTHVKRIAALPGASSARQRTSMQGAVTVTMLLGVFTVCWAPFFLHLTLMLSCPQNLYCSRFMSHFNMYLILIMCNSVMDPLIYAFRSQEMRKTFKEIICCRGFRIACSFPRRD
T4 sequence (Q01726 whole entry): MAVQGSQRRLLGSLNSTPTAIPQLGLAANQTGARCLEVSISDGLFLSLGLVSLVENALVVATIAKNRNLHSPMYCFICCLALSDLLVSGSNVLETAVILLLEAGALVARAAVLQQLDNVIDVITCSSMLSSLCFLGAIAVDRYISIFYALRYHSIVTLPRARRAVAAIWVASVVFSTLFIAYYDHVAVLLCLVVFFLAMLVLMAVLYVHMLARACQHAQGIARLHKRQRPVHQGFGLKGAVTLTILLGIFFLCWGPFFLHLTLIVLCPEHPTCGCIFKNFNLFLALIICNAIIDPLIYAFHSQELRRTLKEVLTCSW
T3 sequence (P41968 whole entry): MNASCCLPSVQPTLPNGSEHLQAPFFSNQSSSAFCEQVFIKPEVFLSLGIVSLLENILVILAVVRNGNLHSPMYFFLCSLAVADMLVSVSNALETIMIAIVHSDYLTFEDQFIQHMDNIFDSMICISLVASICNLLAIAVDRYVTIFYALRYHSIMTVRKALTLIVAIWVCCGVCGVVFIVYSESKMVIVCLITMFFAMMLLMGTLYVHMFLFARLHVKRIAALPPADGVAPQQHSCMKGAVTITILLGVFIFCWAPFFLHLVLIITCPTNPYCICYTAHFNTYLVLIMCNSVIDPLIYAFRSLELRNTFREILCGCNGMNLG
T2 sequence (P32245 whole entry): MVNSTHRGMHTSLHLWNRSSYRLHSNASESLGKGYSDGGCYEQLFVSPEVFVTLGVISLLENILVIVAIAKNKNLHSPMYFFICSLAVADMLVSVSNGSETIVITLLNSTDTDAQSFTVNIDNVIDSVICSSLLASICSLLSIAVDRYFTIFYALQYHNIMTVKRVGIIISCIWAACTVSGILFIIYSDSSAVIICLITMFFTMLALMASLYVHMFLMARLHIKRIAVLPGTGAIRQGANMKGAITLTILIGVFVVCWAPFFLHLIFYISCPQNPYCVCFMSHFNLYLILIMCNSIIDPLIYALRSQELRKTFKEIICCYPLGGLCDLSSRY

`CC(=O)N[C@H]1CSSC[C@@H](C(=O)N2CCC[C@H]2C(=O)N2CCC[C@H]2C(=O)N[C@@H](CCCNC(=N)N)C(=O)N[C@@H](CC(=O)O)C(=O)NCCC(=O)N[C@@H](CCCNC(=N)N)C(=O)N[C@@H](CCCNC(=N)N)C(=O)N[C@@H](CCCNC(=N)N)C(=O)N[C@@H](CCCNC(=N)N)C(=O)N[C@@H](CCCNC(=N)N)C(=O)N[C@@H](CCC(N)=O)C(=O)N[C@@H](CCCNC(=N)N)C(=O)N[C@@H](CCCNC(=N)N)C(=O)N[C@@H](CCCNC(=N)N)C(N)=O)NC(=O)[C@H](C)NC(=O)[C@H](Cc2csc3ccccc23)NC(=O)[C@H](CCCNC(=N)N)NC(=O)[C@@H](Cc2ccc3ccccc3c2)NC(=O)[C@H](Cc2c[nH]cn2)NC(=O)[C@H](CCC(=O)O)NC1=O` was tested, and the EC50 [1] was > 10000 nM, the Kb [2] was 21.2 nM and the Ki ([3]; Ki hMC5-R, Table 6) was 48.3 nM. The Kb [4] was 20.2 nM and the EC50 [5] was 38.3 nM.
With `CC(=O)N[C@H]1CSSC[C@@H](C(=O)N2CCC[C@H]2C(=O)N2CCC[C@H]2C(=O)N[C@@H](CCCCN)C(=O)N[C@@H](CC(=O)O)C(=O)NCCC(=O)N[C@@H](Cc2ccc(O)cc2)C(=O)NCC(=O)N[C@@H](CCCNC(=N)N)C(=O)N[C@@H](CCCCN)C(=O)N[C@@H](CCCCN)C(=O)N[C@@H](CCCNC(=N)N)C(=O)N[C@@H](CCCNC(=N)N)C(=O)N[C@@H](CCC(N)=O)C(=O)N[C@@H](CCCNC(=N)N)C(=O)N[C@@H](CCCNC(=N)N)C(=O)N[C@@H](CCCNC(=N)N)C(N)=O)NC(=O)[C@H](C)NC(=O)[C@H](Cc2csc3ccccc23)NC(=O)[C@H](CCCNC(=N)N)NC(=O)[C@@H](Cc2ccc3ccccc3c2)NC(=O)[C@H](Cc2c[nH]cn2)NC(=O)[C@H](CCC(=O)O)NC1=O` the EC50 [1, 6] was 1800 nM, the Kb [2, 7] was 41.1 nM and the Ki ([3]; Table 6, read-out: Ki hMC5-R) was 15.3 nM. For the same compound, the Kb [4, 8] was 112 nM and the EC50 [5, 9] was 37.9 nM.
For `CC(=O)N[C@H]1CSSC[C@@H](C(=O)N2CCC[C@H]2C(=O)N2CCC[C@H]2C(=O)N[C@@H](CCCCN)C(=O)N[C@@H](CC(=O)O)C(=O)NCCC(=O)NCC(=O)N[C@@H](CCCNC(=N)N)C(=O)N[C@@H](CCCCN)C(=O)N[C@@H](CCCNC(=N)N)C(=O)N[C@@H](CCCNC(=N)N)C(=O)N[C@@H](CCCNC(=N)N)C(=O)N[C@@H](CCC(N)=O)C(=O)N[C@@H](CCCNC(=N)N)C(=O)N[C@@H](CCCNC(=N)N)C(=O)N[C@@H](CCCNC(=N)N)C(N)=O)NC(=O)[C@H](C)NC(=O)[C@H](Cc2csc3ccccc23)NC(=O)[C@H](CCCNC(=N)N)NC(=O)[C@@H](Cc2ccc3ccccc3c2)NC(=O)[C@H](Cc2c[nH]cn2)NC(=O)[C@H](CCC(=O)O)NC1=O`, the EC50 [1] was 194 nM, the Kb [2] was 5.23 nM and the Ki ([3]; Ki hMC5-R, Table 6) was 15.5 nM. The Kb [4] was 98.3 nM and the EC50 [5] was 32.2 nM.
Work on `CC(=O)N[C@H]1CSSC[C@@H](C(=O)N2CCC[C@H]2C(=O)N2CCC[C@H]2C(=O)N[C@@H](CCCCN)C(=O)N[C@@H](CC(=O)O)C(=O)NCCC(=O)N[C@@H](CCCNC(=N)N)C(=O)N[C@@H](CCCCN)C(=O)N[C@@H](CCCNC(=N)N)C(=O)N[C@@H](CCCNC(=N)N)C(=O)N[C@@H](CCCNC(=N)N)C(=O)N[C@@H](CCC(N)=O)C(=O)N[C@@H](CCCNC(=N)N)C(=O)N[C@@H](CCCNC(=N)N)C(=O)N[C@@H](CCCNC(=N)N)C(N)=O)NC(=O)[C@H](C)NC(=O)[C@H](Cc2csc3ccccc23)NC(=O)[C@H](CCCNC(=N)N)NC(=O)[C@@H](Cc2ccc3ccccc3c2)NC(=O)[C@H](Cc2c[nH]cn2)NC(=O)[C@H](CCC(=O)O)NC1=O` yielded an EC50 [1] of 100 nM, a Kb [2] of 4.59 nM and a Ki ([3]; Ki hMC5-R, Table 6) of 15.5 nM. It also gave a Kb [4] of 106 nM and an EC50 [5] of 19.1 nM.
Work on `CC(=O)N[C@H]1CSSC[C@@H](C(=O)N2CCC[C@H]2C(=O)N2CCC[C@H]2C(=O)N[C@@H](CCCCN)C(=O)N[C@@H](CC(=O)O)C(=O)NCCC(=O)NCC(=O)N[C@@H](CCCNC(=N)N)C(=O)N[C@@H](CCCNC(=N)N)C(=O)N[C@@H](CCCNC(=N)N)C(=O)N[C@@H](CCCNC(=N)N)C(=O)N[C@@H](CCCNC(=N)N)C(=O)N[C@@H](CCC(N)=O)C(=O)N[C@@H](CCCNC(=N)N)C(=O)N[C@@H](CCCNC(=N)N)C(=O)N[C@@H](CCCNC(=N)N)C(N)=O)NC(=O)[C@H](C)NC(=O)[C@H](Cc2csc3ccccc23)NC(=O)[C@H](CCCNC(=N)N)NC(=O)[C@@H](Cc2ccc3ccccc3c2)NC(=O)[C@H](Cc2c[nH]cn2)NC(=O)[C@H](CCC(=O)O)NC1=O` (Ac-CEH[d2Nal]R[Bta]ACPPKD[βAla]GRRRRRQRRR-NH2; disulfide 1-8) yielded an EC50 [1, 6] of 1400 nM, a Kb [2, 7] of 32 nM and a Ki ([3]; Table 6, read-out: Ki hMC5-R) of 165 nM. The Kb [4, 8] was 104 nM and the EC50 [5, 9] was 146 nM.
`CC(=O)N[C@@H](CCCNC(=N)N)C(=O)N[C@H]1CC(=O)NCCCC[C@@H](C(N)=O)NC(=O)[C@H](C)NC(=O)[C@H](Cc2c[nH]c3ccccc23)NC(=O)[C@H](CCCNC(=N)N)NC(=O)[C@@H](Cc2ccccc2)NC(=O)[C@H](Cc2c[nH]cn2)NC1=O` [Ac-Arg-c(Asp-His-D-Phe-Arg-Trp-Ala-Lys)-NH2] showed an EC50 ([1]; Table 9A/9B, read-out: EC50 hMC5-R) of 467 nM, an EC50 ([2]; Table 9A/9B, read-out: EC50 hMC4-R) of 0.055 nM and a Ki ([3]; Table 5, read-out: Ki hMC5-R) of 783 nM. It also gave an EC50 ([4]; Table 9A/9B, read-out: EC50 hMC3-R) of 2.89 nM and an EC50 ([5]; Table 9A/9B, read-out: EC50 hMC1-R) of 1.39 nM.
`CC(=O)N[C@H](CCCNC(=N)N)C(=O)N[C@H]1CSSC[C@@H](C(N)=O)NC(=O)[C@H](Cc2c[nH]c3ccccc23)NC(=O)[C@H](CCCNC(=N)N)NC(=O)[C@@H](Cc2ccccc2)NC(=O)[C@H](Cc2c[nH]cn2)NC(=O)[C@@H](C)NC1=O` [Ac-D-Arg-c(Cys-D-Ala-His-D-Phe-Arg-Trp-Cys)-NH2] gave an EC50 [1] of 1020 nM and a Ki ([3]; Ki hMC5-R, Table 5) of 352 nM.
